Laboratory results as given in PubChem BioAssay (NCI).
“And” between values parts separate entries of the source, which are not always exact repeats. Equal values may be shown once.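 Cells were grown in 96-well plates and exposed to each compound for 48 hours at five concentrations; endpoints were interpolated linearly between bracketing concentrations, or set to the highest concentration if not reached. Abbreviation: GI50, concentration required for 50% inhibition of growth. TGI denotes the concentration required for complete inhibition of growth.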

Legend:
Assay in all cases: DTP human tumour cell line panel, 48 h
[1] = test system: A498 renal
[2] = test system: BT-549 breast
[3] = test system: EKVX NSCLC
[4] = test system: IGROV1 ovarian
[5] = test system: K-562 leukemia
[6] = test system: LOX IMVI melanoma
[7] = test system: NCI-H23 lung
[8] = test system: OVCAR-5 ovarian
[9] = test system: RPMI-8226 leukemia
[10] = test system: SN12C renal
[11] = test system: SNB-19 CNS
[12] = test system: SW-620 colon

Row | SMILES | TGI [1] | TGI [2] | TGI [3] | TGI [4] | TGI [5] | TGI [6] | TGI [7] | TGI [8] | TGI [9] | TGI [10] | TGI [11] | TGI [12] | GI50 [4] | GI50 [5]
1 | CC1=C(C(=O)NCCc2ccccc2)CC(C(=O)NCCc2ccccc2)=C(C)N1 | > 100 µM | > 100 µM | > 100 µM | > 100 µM | > 100 µM | > 100 µM | > 100 µM | > 100 µM | > 100 µM | > 100 µM | 72.5 µM | > 100 µM |  | 
2 | COC(=O)C(=O)C(C(=O)C(=O)Nc1ccccc1C(C)=O)c1nc2ccc(C(=O)c3ccccc3)cc2[nH]c1=O (centres undefined) | > 100 µM | > 100 µM | > 100 µM | > 100 µM | > 100 µM | > 100 µM | > 100 µM | > 100 µM | > 100 µM | > 100 µM | > 100 µM |  |  | 
3 | CC(=O)N(CCc1ccccc1)C(C#N)c1ccc(OCCCCCCCCCCOc2ccc(C(C#N)N(CCc3ccccc3)C(C)=O)cc2)cc1 (centres undefined) | 92.6 µM | 98.6 µM | > 100 µM | > 100 µM | > 100 µM | > 100 µM | > 100 µM | > 100 µM |  | > 100 µM | 88.1 µM | > 100 µM |  | 
4 | COc1cc(C2C3=C(COC3=O)Oc3cc4c(cc32)OCO4)ccc1OC(C)=O (centres undefined) | > 30.3 µM | 12.6 µM | > 100 µM |  | > 38.7 µM | > 100 µM | > 100 µM | > 100 µM | > 100 µM | > 100 µM | > 100 µM | > 100 µM |  | 
5 | NC1=NN(c2ccccc2)C2(O)c3ccncc3C3=NN(c4ccccc4)C(=O)C132 (centres undefined) | > 100 µM | > 100 µM | > 100 µM | > 100 µM | > 100 µM | > 100 µM | > 100 µM | > 100 µM | > 100 µM | > 100 µM | > 100 µM | > 100 µM |  | 
6 | Cc1cccc(C)c1NC(=S)NC=C(C(N)=O)C(N)=O | > 100 µM | > 100 µM | > 100 µM | > 100 µM | > 100 µM | > 100 µM | > 100 µM | > 100 µM | > 100 µM | > 100 µM | > 100 µM | > 100 µM |  | 
7 | CCOC(=O)C1C(c2ccc(OC)cc2)c2c([nH][nH]c2=O)CC1(O)OCC (centres undefined) | > 100 µM | > 100 µM | > 100 µM | > 100 µM |  | > 100 µM | > 100 µM | > 100 µM | > 100 µM | > 100 µM | > 100 µM | > 100 µM |  | 
8 | N#CC(Nc1ccccc1)c1ccc(C(C#N)Nc2ccccc2)cc1 (centres undefined) | > 100 µM | > 100 µM | > 100 µM | > 100 µM | > 100 µM | > 100 µM | > 100 µM | > 100 µM |  | > 100 µM | > 100 µM | > 100 µM |  | 
9 | COc1ccc(C2=C(N)c3c(OC)cccc3C2=O)cc1 | > 100 µM | > 100 µM | > 100 µM | > 100 µM | > 100 µM | > 100 µM | > 100 µM | > 100 µM | > 100 µM | > 100 µM | > 100 µM | > 100 µM |  | 
10 | COc1ccc2cc(/C=N\NC(=O)Nc3cccc4ccccc34)ccc2c1 | 31.3 µM | > 100 µM | > 100 µM | > 100 µM | 36.5 µM | > 100 µM | > 100 µM | > 100 µM |  | > 100 µM | 53.5 µM | > 100 µM |  | 
11 | CCCCCCCCC/C=C1\CC(CO)(COC(=O)C2CCCCC2)OC1=O (centres undefined) | 50.6 µM | 36.2 µM | 39.1 µM | 37.7 µM | > 100 µM | 24 µM | 47 µM | 38 µM |  | 35.2 µM | 40.9 µM | 33.1 µM |  | 
12 | Cc1occc1C(=S)Nc1ccc(Cl)c(/C=N/OC(C)C)c1 | 49.9 µM | 36.5 µM | 59 µM | > 57.2 µM | > 100 µM | 31.1 µM | 52.3 µM | 49.4 µM | > 67.6 µM | 35.1 µM | > 67.4 µM | 52.3 µM |  | 
13 | COc1cc(Nc2cnc3cc(F)c(F)cc3n2)cc(OC)c1 | > 100 µM | > 100 µM | > 100 µM | > 100 µM |  | > 100 µM | 91 µM | > 100 µM |  | > 100 µM | > 100 µM | > 100 µM |  | 
14 | CC(=O)OCC1OC(N2C(C)=C(C(C)=O)C(c3ccco3)C(C#N)=C2S)C(OC(C)=O)C(OC(C)=O)C1OC(C)=O (centres undefined) | > 100 µM | > 100 µM |  | > 100 µM | > 100 µM | > 100 µM | > 100 µM | > 100 µM | > 100 µM | > 100 µM | > 100 µM | > 100 µM |  | 
15 | CC1=NN(c2nc(N)nc(CSCc3nc(N)nc(N(C)C)n3)n2)C(C)(C)C1 | > 100 µM | > 100 µM | > 100 µM | > 100 µM | 32.1 µM | > 100 µM | > 100 µM | > 100 µM | > 100 µM | > 100 µM | > 100 µM | > 100 µM |  | 
16 | CCOC(=O)c1c(-c2ccc(O)c(OC)c2)c(C#N)c(=S)n(C2OC(COC(C)=O)C(OC(C)=O)C(OC(C)=O)C2OC(C)=O)c1-c1ccccc1 (centres undefined) | > 100 µM | > 100 µM | > 100 µM | 55.5 µM and > 100 µM | > 100 µM | > 100 µM | > 100 µM | > 100 µM | > 100 µM | > 100 µM | > 100 µM | > 100 µM | 18 µM and 79.7 µM | 49.1 µM and > 100 µM
17 | CCN(CC)C(=S)SNCc1ccc(S(N)(=O)=O)cc1 | > 100 µM | 33 µM | 43.5 µM | 26.6 µM | > 100 µM | 28.8 µM | 44.3 µM | 29.9 µM | 22.8 µM | 28.9 µM | 34.1 µM | > 50.1 µM |  | 
18 | CC(=O)NC1C(O)C(O)C(CO)OC1n1ncc(=O)[nH]c1=O (centres undefined) | > 100 µM | > 100 µM | > 100 µM | > 100 µM | > 100 µM | > 100 µM | > 100 µM | > 100 µM | > 100 µM | > 100 µM | > 100 µM | > 100 µM |  | 
19 | CN(C)CCCCN1c2ccccc2Sc2cc(N=[N+]=[N-])ccc21 | 22.4 µM | 22.9 µM | 15.5 µM | 3.43 µM |  | 3.06 µM | 22.4 µM | 3.76 µM | 6.06 µM | 12.1 µM | 19.9 µM | 3.56 µM |  | 
